This is an account of results in patent publication US20110028447A1, “INDAZOLE DERIVATIVES” (Pfizer Inc., priority 2008, published 2011).

For assay [1], the target named is T1, human CB1 receptor (Homo sapiens, UniProt P21554). In words: Human CB1 receptor binding, [3H] CP-55,940 displacement on HEK cell membranes. More on the design: expressed in transfected cells; host or cells: HEK cells, doxycycline-induced; membrane preparation. The procedure, abridged:
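Radioligand displacement: [3H] CP-55,940 at […] final, 1 μg membrane protein per well from HEK cells with tetracycline-inducible human CB1, 60 min at room temperature, pH 7.4 Tris/NaCl/MgCl2/EGTA/BSA buffer. 50 μM WIN-55,212-2 set nonspecific binding; bound label filtered, counted, and fitted for EC50 and Ki values.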

Assay [2] concerns the target T1, human CB1 receptor. In words: [35S] GTPγS binding on membranes of CHO cells expressing the human CB1 receptor (agonism). On the set-up: expressed in transfected cells; membrane preparation. Format: biochemical. The procedure, abridged:
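Membranes from human CB1-expressing CHO cells (5 μg/well) incubated with test compound and [35S]GTPγS in 50 mM Tris pH 7.4, 100 mM NaCl, 3 mM MgCl2, 0.2 mM EGTA, 0.04% BSA for 45 min at 37 °C. Bound label collected by filtration, scintillation counted; EC50 from curve fits.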

[3] abbreviates: GTPγS EC50, human CB1, CHO cell membranes.
[4] abbreviates: human CB1, CHO cell membranes, read-out: GTPγS EC50.

Read-outs that look alike come from different tables or passages of the source.

T1 sequence (P21554 whole entry): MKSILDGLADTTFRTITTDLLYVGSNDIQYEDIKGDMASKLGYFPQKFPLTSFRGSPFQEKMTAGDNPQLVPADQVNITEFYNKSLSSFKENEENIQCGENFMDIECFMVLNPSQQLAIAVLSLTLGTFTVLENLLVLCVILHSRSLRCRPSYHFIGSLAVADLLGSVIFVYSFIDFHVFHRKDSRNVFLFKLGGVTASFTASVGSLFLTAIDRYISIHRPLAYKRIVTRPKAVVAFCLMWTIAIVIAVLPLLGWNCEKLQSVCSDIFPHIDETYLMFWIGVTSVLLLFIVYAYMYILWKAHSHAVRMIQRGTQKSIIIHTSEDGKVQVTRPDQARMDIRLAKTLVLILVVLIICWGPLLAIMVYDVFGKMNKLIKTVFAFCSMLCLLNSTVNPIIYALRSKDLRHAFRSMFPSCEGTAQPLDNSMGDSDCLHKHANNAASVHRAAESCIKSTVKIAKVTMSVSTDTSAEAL

The Ki is the dissociation constant of the complex between target and ligand, obtained from inhibition or displacement. In general, EC50 refers to the midpoint of the concentration-response curve. In assay [1] (CB1 Ki), `CC(C)(C)[C@H](NC(=O)c1nn(Cc2ccc(F)cc2)c2ccccc12)C(=O)N[C@H](CO)C(N)=O` [Example 246] showed a Ki of 6.58 nM. The response in assay [2] (setting [3]) was half-maximal at 69 nM (EC50).
In the same order, the values of `CC(C)(C)[C@H](NC(=O)c1nn(Cc2ccc(F)cc2)c2ccccc12)C(=O)N1C[C@@H](O)[C@H](O)C1` [Example 247] are 0.65 nM and 0.95 nM.
In the same order, the values of `CC(C)(C)[C@H](NC(=O)c1nn(Cc2ccc(F)cc2)c2ccccc12)C(=O)N1CCOC(CO)C1` (stereo partly drawn) [Example 249] are 2.51 nM and 16.3 nM.
Take `CC(C)(C)[C@H](NC(=O)c1nn(Cc2ccc(F)cc2)c2ccccc12)C(=O)NC[C@H]1CCCC[C@H]1O` [Example 250]: the inhibitory constant (Ki) in assay [1] (read-out: CB1 Ki) was 3.72 nM. For the same compound, the half-maximal effective concentration (EC50) in assay [2] (setting [4]) was determined as 18.1 nM.
Turning to `CC(C)(C)[C@H](NC(=O)c1nn(Cc2ccc(F)cc2)c2ccccc12)C(=O)N1CCCC(O)C1` (stereo partly drawn) [Example 251], the affinity in assay [1] (CB1 Ki) corresponds to a Ki of 0.51 nM. Besides, the midpoint of the response in assay [2] (setting [3]), the EC50, lay at 2.33 nM.
For the compound `CC(C)(C)[C@H](NC(=O)c1nn(Cc2ccc(F)cc2)c2ccccc12)C(=O)NC[C@H]1CCCC[C@@H]1O` [Example 253], in assay [1] (read-out: CB1 Ki), the Ki was 4.5 nM. Besides, the EC50 in assay [2] (setting [4]) stood at 26 nM.
The compound `CC(C)(C)[C@H](NC(=O)c1nn(Cc2ccc(C(F)(F)F)cc2)c2ccccc12)C(N)=O` [Example 254] gave a Ki in assay [1] (CB1 Ki) of 12.3 nM. For the same compound, the EC50 in assay [2] (setting [3]) was 153 nM.
For `CC(C)(C)[C@H](NC(=O)c1nn(Cc2ccc(C(F)(F)F)cc2)c2ccccc12)C(=O)NCCO` [Example 255], in that order: 13.1 nM and 130 nM.
As for `CC(C)(C)[C@H](NC(=O)c1nn(Cc2ccc(F)cc2)c2ccccc12)C(=O)N1CCN(CC(N)=O)CC1` [Example 262], the inhibitory constant (Ki) in assay [1] (read-out: CB1 Ki) was 8.25 nM. Besides, in assay [2] (setting [4]), the EC50 stood at 38.9 nM.
`CC(C)(C)[C@H](NC(=O)c1nn(Cc2ccccc2)c2ccccc12)C(=O)NCCNS(=O)(=O)c1ccc(C#N)cc1` [Example 263]: the inhibition constant Ki in assay [1] (read-out: CB1 Ki) was 8.36 nM. Also, the half-maximal effective concentration (EC50) in assay [2] (setting [4]) is 100 nM.
In the same order, the values of `CC(C)(C)[C@H](NC(=O)c1nn(Cc2ccc(C#N)cc2)c2ccccc12)C(=O)NCCNS(=O)(=O)c1ccc(C#N)cc1` [Example 264] are 6.75 nM and 103 nM.
Consider `CC(C)(C)[C@H](NC(=O)c1nn(Cc2ccc(C#N)cc2F)c2ccccc12)C(=O)NCCNS(=O)(=O)c1ccc(C#N)cc1` [Example 265], for which the Ki in assay [1] (read-out: CB1 Ki) worked out at 13.1 nM. The EC50 in assay [2] (setting [4]) was 82 nM.
In the same order, the values of `CC(C)(C)[C@H](NC(=O)c1nn(Cc2ccc(F)cc2)c2ccccc12)C(=O)NCCNS(=O)(=O)c1ccc(C#N)cc1` [Example 266] are 0.94 nM and 4.34 nM.
Turning to `CC(C)(C)[C@H](NC(=O)c1nn(Cc2ccc(F)cc2)c2ccccc12)C(=O)NCC#N` [Example 270], the inhibition constant (Ki) in assay [1] (CB1 Ki) stood at 0.76 nM. The compound further returned an EC50 in assay [2] (setting [3]) of 2.62 nM.
In the same order, the values of `CC(C)(C)[C@H](NC(=O)c1nn(Cc2ccc(F)cc2)c2ccccc12)C(=O)NCCC#N` [Example 271] are 2.91 nM and 24.9 nM.
For `CC(C)(C)[C@H](NC(=O)c1nn(Cc2ccc(F)cc2)c2ccccc12)C(=O)NC1CCOC1` (stereo partly drawn) [Example 281], in that order: 4.83 nM and 37.4 nM.
On to `CC(C)(C)[C@H](NC(=O)c1nn(Cc2ccc(F)cc2)c2c(F)c(F)ccc12)C(N)=O` [Example 282], for which the affinity in assay [1] (CB1 Ki), expressed as Ki, was 0.17 nM. For the same compound, the EC50 in assay [2] (setting [3]) worked out at 0.78 nM.
`CC(C)(C)[C@H](NC(=O)c1nn(Cc2ccc(F)cc2)c2ccccc12)C(=O)N1C[C@@H](O)[C@@H](O)C1` [Example 284]: the affinity in assay [1] (CB1 Ki) corresponds to a Ki of 1.03 nM. This compound also came in with an EC50 in assay [2] (setting [3]) of 12.3 nM.
Regarding `CC(C)(C)[C@H](NC(=O)c1nn(Cc2ccc(C#N)cc2)c2c(F)cccc12)C(=O)N[C@@H]1CCc2ccccc21` [Example 286], the Ki in assay [1] (read-out: CB1 Ki) turned out to be 5.74 nM. Moreover, in assay [2] (setting [4]), the EC50 was determined as 36.1 nM.
In assay [1] (CB1 Ki), `CC(C)(C)[C@H](NC(=O)c1nn(Cc2ccc(F)cc2)c2ccccc12)C(=O)N[C@H]1CC[C@@H](O)C1` [Example 288] displayed an inhibitory constant (Ki) of 1.18 nM. In assay [2] (setting [3]), this compound came in with an EC50 of 9.53 nM.
For `CC(C)(C)[C@H](NC(=O)c1nn(Cc2ccc(F)cc2)c2ccccc12)C(=O)N[C@@H]1CC[C@@H](O)C1` [Example 289], in that order: 5.13 nM and 35.8 nM.
In the same order, the values of `CC(C)(C)[C@H](NC(=O)c1nn(Cc2ccc(F)cc2)c2ccccc12)C(=O)N1CCC[C@H]1C(N)=O` [Example 292] are 5.25 nM and 19 nM.
For `CC(C)(C)[C@H](NC(=O)c1nn(Cc2ccc(C#N)cc2)c2cc(F)ccc12)C(=O)NCCO` [Example 295], in assay [1] (CB1 Ki), the Ki came out at 9.17 nM. Also, in assay [2] (setting [3]), a half-maximal response (EC50) required 64.3 nM.
`CC(C)(C)[C@H](NC(=O)c1nn(Cc2ccc(C#N)cc2)c2cc(F)ccc12)C(=O)NC1CC1` [Example 299]: in assay [1] (CB1 Ki), the Ki was 8.56 nM. In addition, in assay [2] (setting [3]), the EC50 came out at 23.8 nM.
